Laboratory results as given in patent publication US20250144056A1, “ANTIMICROBIAL HOST DEFENSE PEPTIDE-INDUCING COMPOSITIONS AND METHODS OF PRODUCTION AND USE THEREOF” (Board of Regents for the Oklahoma Agricultural and …, priority 2022, published 2025).

What was measured:
Assay type in all cases: cell-based, chicken
CLDN1 = assay: RT-qPCR of CLDN1 (claudin 1) in HTC cells
Method: (§1) Culture and stimulation of macrophages. Two different chicken macrophage cell lines, HTC (24) and HD11 (25), were kindly provided by Dr. Narayan C. Rath and Dr. Hyun Lillehoj of USDA-ARS and maintained in RPMI 1640 containing 10% heat-inactivated FBS, 100 U/ml penicillin, and 100 μg/ml streptomycin and subcultured every 3-4 days. After overnight seeding at 1.5×10^6 cells/well in 6-well cell culture plates, cells were treated with different concentrations of each compound for 24 h or with the indicated concentration of each compound for various lengths of time for dose-response and time-course experiments, respectively. To study the synergy between HMTi/DNMTi and HDACi, different concentrations of an HMTi or DNMTi were added to the cells in the presence or absence of an HDACi for 24 h, followed by RNA isolation and HDP gene expression analysis as described below. HTC cells were also stimulated with butyrate, BIX01294, or their combination for 24 h, followed by 3-h stimulation with 10 ng/ml LPS and subsequent expression analysis.
(§2) Total RNA extraction and gene expression analysis. Total RNA was extracted using RNAzol (Molecular Biology Research Center, Cincinnati, OH) according to the manufacturer's protocol. Gene expression was performed using reverse transcription-quantitative PCR (RT-qPCR) as previously described (27-29). Reverse transcription was performed with 300 ng of total RNA and Maxima® First Strand cDNA Synthesis Kit (ThermoFisher Scientific, Pittsburgh, PA). The cDNA was then diluted 10-fold with RNase-free water prior to real-time PCR using QuantiTect SYBR® Green PCR Kit (Qiagen, Valencia, CA) in 10-μl reactions using primers specific for HDP, barrier function, and inflammatory cytokine genes as described (27, 29, 30). PCR was run in CFX Connect Real-Time PCR System (Bio-Rad, Hercules, CA) using the following program: 95° C. for 10 min, followed by 40 cycles of 94° C. for 15 sec, 55° C. for 20 sec, and 72° C. for 30 sec. The specificity of PCR reactions was confirmed by the melting curve analysis. The glyceraldehyde-3-phosphate dehydrogenase (GAPDH) gene was used as the reference for data normalization. The fold changes in gene expression in the cells treated with individual compounds or in combinations were calculated relative to the cells treated with an equal volume of RPMI 1640 or DMSO using the ΔΔCt method (31).

AvBD14 = assay: RT-qPCR of AvBD14 in HTC cells; conditions: 2 mM butyrate and at least one concentration of BIX01294, 24 h (FIG. 5)
Method: (§3) Culture and stimulation of macrophages. Two different chicken macrophage cell lines, HTC (24) and HD11 (25), were kindly provided by Dr. Narayan C. Rath and Dr. Hyun Lillehoj of USDA-ARS and maintained in RPMI 1640 containing 10% heat-inactivated FBS, 100 U/ml penicillin, and 100 μg/ml streptomycin and subcultured every 3-4 days. After overnight seeding at 1.5×10^6 cells/well in 6-well cell culture plates, cells were treated with different concentrations of each compound for 24 h or with the indicated concentration of each compound for various lengths of time for dose-response and time-course experiments, respectively. […]
(§4) Total RNA extraction and gene expression analysis. […] Gene expression was performed using reverse transcription-quantitative PCR (RT-qPCR) as previously described (27-29). […] The cDNA was then diluted 10-fold with RNase-free water prior to real-time PCR using QuantiTect SYBR® Green PCR Kit (Qiagen, Valencia, CA) in 10-μl reactions using primers specific for HDP, barrier function, and inflammatory cytokine genes as described (27, 29, 30). […] The fold changes in gene expression in the cells treated with individual compounds or in combinations were calculated relative to the cells treated with an equal volume of RPMI 1640 or DMSO using the ΔΔCt method (31).

AvBD9 mRNA expression = assay: RT-qPCR of AvBD9 mRNA expression in HTC macrophage cells
Method: as §1, §2

AvBD10 = assay: RT-qPCR of AvBD10 in HTC cells; conditions: 2 mM butyrate and at least one concentration of BIX01294, 24 h (FIG. 5)
Method: as §3, §4

COc1cc2nc(N3CCCN(C)CC3)nc(NC3CCN(Cc4ccccc4)CC3)c2cc1OC [BIX01294]
CLDN1 synergy with butyrate after subsequent LPS treatment (CLDN1; 5 μM BIX01294 + 2 mM butyrate 24 h, then 10 ng/ml LPS 3 h (FIG. 8, Panel A)): further enhanced
synergy in CLDN1 expression with butyrate (CLDN1; 5 μM BIX01294 + 2 mM butyrate, 24 h (FIG. 8, Panel A)): marked synergy
activity in increasing CLDN1 expression (CLDN1; 5 μM BIX01294 alone, 24 h (FIG. 8, Panel A)): minimum activity
AvBD14 induction, combination with butyrate (AvBD14): greater than 100 fold
impact of LPS on the AvBD9-inducing synergy with butyrate (AvBD9 mRNA expression; 5 μM BIX01294 + 2 mM butyrate 24 h, then 10 ng/ml LPS 3 h (FIG. 8, Panel C)): no impact
additional increase in AvBD9 gene expression over BIX01294 alone, combination with mocetinostat (AvBD9 mRNA expression; 5 μM BIX01294 in combination with 2.5 μM mocetinostat, 24 h (FIG. 7, Panel A)): 23 fold
additional increase in AvBD9 gene expression over BIX01294 alone, combination with butyrate (AvBD9 mRNA expression; 5 μM BIX01294 in combination with 2 mM butyrate, 24 h (FIG. 7, Panel A)): 26 fold
additional increase in AvBD9 gene expression over BIX01294 alone, combination with vorinostat (AvBD9 mRNA expression; 5 μM BIX01294 in combination with vorinostat (SAHA), 24 h (FIG. 7, Panel A)): 69 fold
additional increase in AvBD9 expression of the butyrate combination over compound alone (AvBD9 mRNA expression; 20 μM compound + 2 mM butyrate versus 20 μM compound alone): 54 fold
increase in AvBD9 mRNA expression (AvBD9 mRNA expression; 20 μM compound alone, 24 h (FIG. 2, Panel B), peak): 175 fold
induction of AvBD9 expression (AvBD9 mRNA expression; 20 μM compound alone, 24 h (FIG. 4, Panels A, B)): 207 fold
increase in AvBD9 expression, combination with butyrate (AvBD9 mRNA expression; 20 μM compound in combination with 2 mM butyrate, 24 h (FIG. 4, Panels A, B)): 11,165 fold
synergy with butyrate in AvBD9 mRNA expression (AvBD9 mRNA expression; indicated concentrations in combination with 2 mM butyrate, 24 h (FIG. 4)): concentration-dependent increase
synergy in AvBD9 induction with HDACi (AvBD9 mRNA expression; with any of three HDACi (vorinostat, butyrate, mocetinostat), 24 h (FIG. 7, Panel A)): dramatic synergy
AvBD10 induction, combination with butyrate (AvBD10): greater than 100 fold
